Source: patent US20200289456A1, “METHODS FOR INHIBITING TUMORS AND DRUG RESISTANCE” (SEQUOIA PHARMACEUTICALS, INC., priority 2015, published 2020)

Test system: tumors expressing high levels of CYP3A4
Assay: Combination of Docataxel and an ICI in patients (21 day treatment cycle)
Assay type: in vivo
Description: The compound of formula IA (150 mg po qd) is administered to patients for the first 3 days of a 21 day treatment cycle. Escalating doses of Docataxel are administered IV beginning on day 4. Docataxel is dose-escalated at 15, 25, 40, and 50 mg/m^2, where the standard dose is 75 mg/m^2.

For `CCCCCCN(CCCN(CC(C)C)S(=O)(=O)c1ccc2occc2c1)C(=O)OC(C)(C)C` [IA], the “cancer cell kill in tumors expressing high levels of CYP3A4” value (IA 150 mg po qd days 1-3, Docataxel IV from day 4) was “improves cancer cell kill”, the “toxicity of Docataxel” value (IA 150 mg po qd days 1-3, lower dose of docataxel and lower Cmax while maintaining AUC) was “diminishes toxicity” and the “variability in AUC and drug response of Docataxel” value (IA 150 mg po qd days 1-3 of 21 day cycle, Docataxel IV from day 4, 15-50 mg/m^2) was “decreases variability in AUC and drug response”.
